Data on three compounds can be found in paper PMC8425032, “Functional characterization of a highly specific L-arabinose transporter from Trichoderma reesei” (Microbial Cell Factories, 2021).

Common to all, as to assay type: cell-based
Test [1] addresses T1, Trire2_104072 (Trichoderma reesei, UniProt Q1EG32).
T1 construct: gene xlt1; full-length RUT-C30 version, yeast codon-optimised synthetic gene; no tag mentioned; P388H version XLT1 from plasmid B1687
Put plainly: inhibition of […]-L-arabinose uptake, yeast cells. To be noted: fivefold excess over 0.167 mM labelled L-arabinose, pH 6.5, 28 °C.

Test [2] has as its target T2, Trire2_104072 (Trichoderma reesei, UniProt Q1EG32, H388P, form not given).
T2 construct: gene xlt1; full-length RUT-C30 version, yeast codon-optimised synthetic gene; no tag mentioned; P388H version XLT1 from plasmid B1687
In words: inhibition of […]-L-arabinose uptake, yeast cells. To be noted: 833 µM; fivefold excess over 0.167 mM labelled L-arabinose, pH 6.5, 28 °C.

Test [3] deals with T2, Trire2_104072. In words: two-electrode voltage clamp, sugar-induced current, Xenopus oocytes. To be noted: pH 5.5, -50 mV, sodium-free ND-96 buffer; proton symport. In general terms: In two-electrode clamp one electrode senses voltage and the other passes current.
Another test concerns the target T3, P. chrysogenum AraT (Penicillium rubens, UniProt B6HE12).
T3 construct: gene Pc20g01790; no tag mentioned
T3 sequence (B6HE12 1-511): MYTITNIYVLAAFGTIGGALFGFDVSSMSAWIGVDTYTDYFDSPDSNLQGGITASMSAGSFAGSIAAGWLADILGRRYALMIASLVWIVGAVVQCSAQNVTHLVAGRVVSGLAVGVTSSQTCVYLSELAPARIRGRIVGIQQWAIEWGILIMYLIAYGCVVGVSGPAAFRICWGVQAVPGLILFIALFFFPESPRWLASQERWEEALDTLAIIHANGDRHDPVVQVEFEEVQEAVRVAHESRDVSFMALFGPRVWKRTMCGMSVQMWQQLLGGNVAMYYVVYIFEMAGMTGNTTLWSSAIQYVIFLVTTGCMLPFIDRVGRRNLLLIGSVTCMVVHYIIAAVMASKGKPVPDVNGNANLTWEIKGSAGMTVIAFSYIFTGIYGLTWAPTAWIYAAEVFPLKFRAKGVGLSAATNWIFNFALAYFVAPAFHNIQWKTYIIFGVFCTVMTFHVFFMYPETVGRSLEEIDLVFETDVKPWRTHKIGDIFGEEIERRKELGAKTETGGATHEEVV
Put plainly: […]-L-arabinose uptake, yeast cells. To be noted: 0.167 mM L-arabinose at pH 6.5 and 5 mM at pH 4.5; 28 °C; labelled compound.

A further test deals with T4, A. thaliana STP7 (Arabidopsis thaliana, UniProt O04249).
T4 construct: no tag mentioned
T4 sequence (O04249 1-513): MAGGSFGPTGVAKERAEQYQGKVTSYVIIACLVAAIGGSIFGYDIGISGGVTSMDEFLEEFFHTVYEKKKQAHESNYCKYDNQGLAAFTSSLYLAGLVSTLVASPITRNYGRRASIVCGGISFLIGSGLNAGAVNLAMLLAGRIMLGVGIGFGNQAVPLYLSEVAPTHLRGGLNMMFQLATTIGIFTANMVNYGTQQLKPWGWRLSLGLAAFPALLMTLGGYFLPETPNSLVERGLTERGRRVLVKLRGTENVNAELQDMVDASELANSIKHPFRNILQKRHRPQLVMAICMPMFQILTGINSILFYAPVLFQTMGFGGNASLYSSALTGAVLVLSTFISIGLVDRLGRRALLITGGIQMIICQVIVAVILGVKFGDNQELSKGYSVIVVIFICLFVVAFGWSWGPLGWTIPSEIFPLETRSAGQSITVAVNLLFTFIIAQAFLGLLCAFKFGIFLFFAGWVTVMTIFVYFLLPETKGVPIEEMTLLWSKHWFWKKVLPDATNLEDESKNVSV
In words: […]-L-arabinose uptake, yeast cells. To be noted: 5 mM L-arabinose, sodium citrate pH 4.5, 28 °C; labelled compound.

T2 sequence (Q1EG32 entry or part of it H388P, form open): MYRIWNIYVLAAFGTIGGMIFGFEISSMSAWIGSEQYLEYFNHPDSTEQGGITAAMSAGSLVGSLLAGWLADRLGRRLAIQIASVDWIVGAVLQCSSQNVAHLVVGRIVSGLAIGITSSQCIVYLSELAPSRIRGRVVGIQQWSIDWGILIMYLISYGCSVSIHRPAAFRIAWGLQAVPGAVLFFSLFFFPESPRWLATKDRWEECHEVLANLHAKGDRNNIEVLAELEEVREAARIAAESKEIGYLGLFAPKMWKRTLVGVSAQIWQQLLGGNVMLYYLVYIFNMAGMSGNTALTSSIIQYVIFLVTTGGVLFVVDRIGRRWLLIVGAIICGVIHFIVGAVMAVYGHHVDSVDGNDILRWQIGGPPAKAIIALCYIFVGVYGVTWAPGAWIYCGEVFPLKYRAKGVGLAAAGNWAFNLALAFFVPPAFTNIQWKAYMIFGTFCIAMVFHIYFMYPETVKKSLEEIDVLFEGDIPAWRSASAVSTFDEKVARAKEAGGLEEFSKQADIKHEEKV
T1 sequence (Q1EG32 entry or part of it): as the sequence (Q1EG32 entry or part of it H388P, form open) above, with P388H counted along it

Broadly, the % inhibition is the percentage by which the read-out fell short of the control. Higher therefore signals a strong effect. In the case of `OC[C@H]1OC(O)[C@H](O)[C@@H](O)[C@@H]1O` (stereo partly drawn) [D-glucose], at Trire2_104072 [1], the “% inhibition at 0.833 mM” value worked out at 4.5±17.6%. The “Inhibition of L-arabinose uptake by competing sugar (glucose in 22.1, xylose in 22.2)” value at Trire2_104072 [2] was determined as 0±8.2%.
What is called Km is the concentration of substrate that gives half-maximal velocity. With `OC1OC[C@@H](O)[C@H](O)[C@H]1O` (stereo partly drawn) [D-xylose], the “% inhibition at 0.833 mM” value at Trire2_104072 [1] was 13.4±7.9%. The Km on Trire2_104072 [3] worked out at 9.16 ± 3.35 mM. In addition, the “Inhibition of L-arabinose uptake by competing sugar (glucose in 22.1, xylose in 22.2)” value on Trire2_104072 [2] came out at 10.9±6.3%.
`OC1OC[C@H](O)[C@H](O)[C@H]1O` (stereo partly drawn) [L-arabinose]: the “14C-L-arabinose uptake, yeast cells” value at P. chrysogenum AraT is “XLT1 or P. chrysogenum AraT had significantly higher L-arabinose uptake rates than the control strain”; on A. thaliana STP7 it was “The strain expressing A. thaliana STP7 had also significantly higher uptake”. Moreover, on Trire2_104072 [3], the Km amounted to 0.207 ± 0.079 mM.
